Data set [1] deals with IL-8 secreted by human pulmonary artery endothelial cells (HPAEC). In words: In vitro IL-8 assay: TNF-alpha-stimulated IL-8 secretion by HPAEC, ELISA. The settings on record: Endothelial cell, 10 microM compound, 20 hrs preincubation, then 2 ng/ml TNF-alpha for 4 hrs. In kind it is cell-based. As for the experimental part:
(§1) In Vitro IL-6 and IL-8 Assays
(§2) Compounds at dosing concentrations (with 0.2% DMSO vehicle) were incubated in EGM2MV cell media at 37° C. for overnight, added to 96-well plates seeded with confluent human pulmonary artery endothelial cells (HPAEC) for 20 hrs at 37° C., and then replaced with fresh dosing media containing 2 ng/ml tumor necrosis factor alpha for additional 4 hrs at 37° C. Afterwards, media was removed and used in ELISA assay to quantify the amount of IL-6 and IL-8 secreted by the cells using R&D Systems Duoset ELISA kits.
(In general: In an ELISA, binding on a coated surface is turned into a signal by an enzyme label.)

The test system of data set [2] is IL-6 secreted by human pulmonary artery endothelial cells (HPAEC). Kind of data set: In vitro IL-6 assay: TNF-alpha-stimulated IL-6 secretion by HPAEC, ELISA. It is filed as cell-based. The settings on record: Endothelial cell, 10 microM compound, 20 hrs preincubation, then 2 ng/ml TNF-alpha for 4 hrs. The method, then: as §1, §2
Data set [3] concerns Balb/CJ mice, ovalbumin-sensitized and challenged. Kind of data set: Mouse model of asthma: methacholine-induced airway reactivity (Penh) in ovalbumin-sensitized mice. It is filed as in vivo. The settings on record: po, 768 h, 50 mg/kg p.o., days 26-32, % inhibition of the PenH vs McH dose AUC compared with vehicle control, day 32, read-out: Reduction of Penh AUC at 50 mg/kg p.o. As for the experimental part:
Protocol for Testing Compounds in a Mouse Model of Asthma
Male 5-6 week old Balb/CJ mice were obtained from Jackson Laboratories (Bar Harbor, Me.). All experimental animals were used in accordance to Institutional Animal Care and Use Committee of AtheroGenics, Inc. Mice were sensitized by administering an intraperitoneal injection of 20 μg of ovalbumin (Calbiochem, La Jolla, Calif.) adsorbed in 2 mg of alum (Imject Alum; Pierce, Rockford, Ill.) on day 0 and 14. A group of mice received saline and served as negative control animals. The mice were challenged by aerosol exposure to ovalbumin (1% [wt/vol]) for 25 minutes on 3 consecutive days (days 28, 29, and 30) in a plexiglas exposure chamber coupled to an Aeroneb nebulizer (Buxco Electronics, Wilmington, N.C.). Experimental compounds were dissolved in Glycofurol/PEG 300/Tween (35%/55%/10%) (Sigma-aldrich; Milwaukee, Wis.). Animals were dosed orally with either test compound or vehicle (6 ml/kg dosing volume) on days 26-32 of study. Compound or vehicle was administered 2 hour before the aerosol challenge on days 28, 29, and 30 and 1 hour before airway reactivity measurement on day 32.
Methacholine-induced airway reactivity was assessed on day 32. Methacholine was administered in increasing concentrations ([…], 1.5, 3, 6, 12, 25, and 50 mg/ml) to unrestrained mice. Increases in airway resistance to Methacholine were determined as enhanced pause, (Penh) values, during and after the exposure (6-minute total analysis time). Mice were then humanely euthanized with an overdose of ketamine/xylazine and plasma samples collected for determination of drug levels. The data is presented as the % inhibition of the PenH vs McH dose AUC compared with the vehicle control.
Data analysis was conducting using the software package, JMP (SAS Institute Inc; Cary, N.C.). The Dunnett's multiple comparison test was used to compare treatment group means to the vehicle control group. P values of less than 0.05 were considered statistically significant. The data (Table 1) are presented as the % inhibition of the PenH vs McH dose AUC compared with the vehicle control.

The results in this text go back to patent US20080280974A1, “Spiro compounds for treatment of inflammatory disorders” (priority 2007, published 2008).

The compound `Cc1cc2c(cc1O)C(C)(C)CC1(CC(C)(C)c3cc(OCCCO)c(C)cc3O1)O2` (racemic) [Example 3, (±)-6′-Hydroxy-6-(3-hydroxypropoxy)-4,4,4′,4′,7,7′-hexamethyl-2,2′-spirobichroman] showed a melting point of 175 to 177 °C. In data set [1], this compound displayed an inhibition at 10 µM of 13%. This compound also returned an inhibition at 10 µM in data set [2] of 53%. Also, the inhibition in vivo at 50 mg/kg in data set [3] was 20 to 40%.
The compound `Cc1cc2c(cc1O)C(C)(C)CC1(CC(C)(C)c3cc(OC[C@@H](O)CO)c(C)cc3O1)O2` (mixture of isomers) [Example 5, (±)-6′-Hydroxy-6-[2(S),3-dihydroxypropoxy]-4,4,4′,4′,7,7′-hexamethyl-2,2′-spirobichroman] had a melting point of 218 to 220 °C. Further, the inhibition at 10 µM in data set [1] came out at 11%. This compound yielded an inhibition at 10 µM in data set [2] of 3%. Also, the inhibition in vivo at 50 mg/kg in data set [3] fell in the range of 20 to 40%.
On the same counts, the results for `Cc1cc2c(cc1O)C(C)(C)CC1(CC(C)(C)c3cc(OCC(=O)O)c(C)cc3O1)O2` (racemic) [Example 7, (±)-6′-(Hydroxy-4,4,4′,4′,7,7′-hexamethyl-2,2′-spirobichroman-6-yloxy)-acetic acid] are 227 to 229 °C, 0%, 12% and more than 40%.
The corresponding values for `Cc1cc2c(cc1O)C(C)(C)CC1(CC(C)(C)c3cc(OCCCC(=O)O)c(C)cc3O1)O2` (racemic) [Example 12, 4-[(±)-(6′-Hydroxy-4,4,4′,4′,7,7′-hexamethyl-2,2′-spirobichroman-6-yloxy)-]butyric acid] are 173 to 174 °C, 0%, 0% and less than 20%.
The corresponding values for `Cc1cc2c(cc1OCC(=O)O)C(C)(C)CC1(CC(C)(C)c3cc(OCC(=O)O)c(C)cc3O1)O2` (racemic) [Example 21, (±)-[(4,4,4′,4′,7,7′-Hexamethyl-2,2′-spirobichroman-6,6′-diyl)bis(oxy)]-bis-acetic acid] are more than 260 °C, 19%, 25% and 20 to 40%.

For orientation: inhibition means how much of the control response was suppressed. Read a low inhibition as a response near the control. Usually melting point stands for the temperature of the solid-liquid transition.
